This passage reports Ki results from BindingDB's records for PubMed 2338642 (Marion Merrell Dow, 1990).

Where “and” joins values, the source holds several entries; their conditions need not be identical. Identical values can stand only once.

In the test the target is Voltage-dependent L-type calcium channel subunit alpha-1C (Rattus norvegicus, UniProt P22002).
Voltage-dependent L-type calcium channel subunit alpha-1C, sequence (P22002 whole entry): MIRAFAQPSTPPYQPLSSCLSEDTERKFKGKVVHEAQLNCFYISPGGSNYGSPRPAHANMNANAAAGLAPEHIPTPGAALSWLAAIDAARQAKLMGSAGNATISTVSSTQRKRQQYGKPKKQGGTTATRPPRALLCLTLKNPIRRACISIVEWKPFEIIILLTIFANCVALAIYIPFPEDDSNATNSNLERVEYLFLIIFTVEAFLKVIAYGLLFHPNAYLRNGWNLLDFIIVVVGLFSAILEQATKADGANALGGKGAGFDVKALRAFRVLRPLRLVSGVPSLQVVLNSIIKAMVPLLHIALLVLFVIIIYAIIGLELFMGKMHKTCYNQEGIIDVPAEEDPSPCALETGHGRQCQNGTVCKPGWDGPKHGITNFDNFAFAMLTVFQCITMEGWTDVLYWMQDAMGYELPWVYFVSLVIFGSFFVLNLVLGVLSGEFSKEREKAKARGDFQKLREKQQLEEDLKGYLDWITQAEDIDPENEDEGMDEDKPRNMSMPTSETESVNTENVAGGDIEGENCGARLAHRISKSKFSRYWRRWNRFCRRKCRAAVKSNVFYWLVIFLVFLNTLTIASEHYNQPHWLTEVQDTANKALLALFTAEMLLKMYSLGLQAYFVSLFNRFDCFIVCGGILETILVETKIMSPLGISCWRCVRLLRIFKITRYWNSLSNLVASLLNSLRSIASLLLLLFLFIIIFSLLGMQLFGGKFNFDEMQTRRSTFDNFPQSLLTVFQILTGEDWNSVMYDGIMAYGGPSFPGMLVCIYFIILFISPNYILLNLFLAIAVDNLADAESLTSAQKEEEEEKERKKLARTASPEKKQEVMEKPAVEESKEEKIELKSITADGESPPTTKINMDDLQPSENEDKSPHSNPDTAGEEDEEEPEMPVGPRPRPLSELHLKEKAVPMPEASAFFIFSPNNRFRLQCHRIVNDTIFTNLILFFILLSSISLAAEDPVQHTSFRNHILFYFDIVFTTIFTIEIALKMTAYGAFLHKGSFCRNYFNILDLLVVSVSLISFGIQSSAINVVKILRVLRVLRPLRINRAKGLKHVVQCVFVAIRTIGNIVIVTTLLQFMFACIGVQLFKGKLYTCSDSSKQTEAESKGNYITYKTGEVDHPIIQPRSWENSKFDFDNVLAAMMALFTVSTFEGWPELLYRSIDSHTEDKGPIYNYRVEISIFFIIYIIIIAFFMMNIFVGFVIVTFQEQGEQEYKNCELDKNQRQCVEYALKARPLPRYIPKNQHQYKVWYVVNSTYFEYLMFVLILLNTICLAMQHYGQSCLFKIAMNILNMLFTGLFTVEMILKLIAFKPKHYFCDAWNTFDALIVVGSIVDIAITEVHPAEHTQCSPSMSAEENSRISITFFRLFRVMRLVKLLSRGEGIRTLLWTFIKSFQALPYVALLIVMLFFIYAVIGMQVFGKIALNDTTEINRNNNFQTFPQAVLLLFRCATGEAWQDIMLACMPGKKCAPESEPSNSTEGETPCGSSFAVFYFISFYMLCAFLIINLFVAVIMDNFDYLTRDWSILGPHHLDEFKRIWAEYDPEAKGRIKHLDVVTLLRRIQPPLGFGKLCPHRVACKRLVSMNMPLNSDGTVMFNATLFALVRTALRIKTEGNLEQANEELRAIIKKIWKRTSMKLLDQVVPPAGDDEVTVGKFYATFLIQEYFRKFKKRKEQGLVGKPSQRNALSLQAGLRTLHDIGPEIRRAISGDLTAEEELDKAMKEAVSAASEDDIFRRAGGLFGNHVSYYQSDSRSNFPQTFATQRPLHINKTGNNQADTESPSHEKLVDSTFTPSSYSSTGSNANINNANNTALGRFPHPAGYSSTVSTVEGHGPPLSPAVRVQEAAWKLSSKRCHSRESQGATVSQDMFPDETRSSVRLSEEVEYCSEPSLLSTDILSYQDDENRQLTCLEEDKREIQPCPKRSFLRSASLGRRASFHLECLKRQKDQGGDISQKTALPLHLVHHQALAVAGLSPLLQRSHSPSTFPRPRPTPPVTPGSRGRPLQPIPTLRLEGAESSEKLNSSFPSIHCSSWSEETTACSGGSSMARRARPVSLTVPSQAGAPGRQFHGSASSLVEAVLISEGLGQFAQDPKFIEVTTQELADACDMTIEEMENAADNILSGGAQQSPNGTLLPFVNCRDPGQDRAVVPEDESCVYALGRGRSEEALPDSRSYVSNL
As to `COc1cc2nc(N3CCN(C(=O)c4ccco4)CC3)nc(N)c2cc1OC` [[3H]-Minipress], the Ki was 6 µM and > 10 µM.
The value for `COc1ccc([C@@H]2Sc3cc(Cl)ccc3N(CCN(C)C)C(=O)[C@@H]2OC(C)=O)cc1` [CAS_96128-92-6] was over 10 µM; that for `COc1ccc([C@H]2Sc3cc(Cl)ccc3N(CCN(C)C)C(=O)[C@H]2OC(C)=O)cc1` [l-TA-3090] was over 10 µM.
